pIC50: −log10 of the molar value. Read-outs that look alike come from different tables or passages of the source. Bounds are passed on as bounds.

Assay [1] in a line: HPLC studies of reaction kinetics of tetrazine prodrugs with cyclooctyne alkynes (Kobs, second-order rate constant k2). As to conditions: alkyne 2b; 37° C.; PBS containing 10% DMSO; n = 3. Type of assay: physicochemical. Here is the method: Stock solution preparation. Each of the tetrazine prodrugs (compounds 1b, 1c, and 1d) was dissolved in DMSO to afford a 500-μM stock solution. Each of the alkynes (compounds 2a, 2b, 2c, and 2d) was dissolved in DMSO to afford a 50-mM stock solution. Doxorubicin (Dox) and dansylamino compound (DA) 1.1b were each dissolved in DMSO to afford 1-mM stock solutions.
HPLC method A.: mobile phase A (10 mM NaH2PO4 in water, pH=5.0) and mobile phase B (ACN), flow rate: 1 mL/min, running time: 30 min, the gradient elution method: 25% B from 0 to 6 min, 25% to 50% B from 6 to 8 min, 50% B from 8 to 15 min, 50% to 99% B from 15 to 20 min, 99% B from 20 to 25 min, 99% to 25% B from 25 to 30 min. Detection wavelength: 256 nm. Column: Waters C18 3.5 μM, 4.6×100 mm. Injection volume: 20 μL.
HPLC method B: mobile phase A (10 mM NaH2PO4 in water, pH=5.0) and mobile phase B (ACN), flow rate: 1 mL/min, running time: 30 min, the gradient elution method: 30% B from 0 to 6 min, 30% to 50% B from 6 to 8 min, 50% B from 8 to 15 min, 50% to 99% B from 15 to 20 min, 99% B from 20 to 25 min. 99% to 30% B from 25 to 30 min. Detection wavelength 1: 256, detection wavelength 2: 337 nm. Column: Waters C18 3.5 μM, 4.6×100 mm. Injection volume: 20 μL.
General procedures HPLC studies of reaction kinetics. To three 20-ml vials with 9 mL PBS were added a solution of tetrazine prodrug (500 μL, 500 μM). 350 μL, 300 μL and 250 μL DMSO were added to vial respectively, and then 150 μL, 200 μL and 250 μL of the alkyne solution (50 mM in DMSO) were added to the vials to afford final concentrations of alkyne 0.75 mM, 1 mM and 1.25 mM in PBS (10% DMSO, 25 μM prodrug) respectively. The reaction was stirred at r.t or 37° C. respectively. Every 30 min about 500 μL reaction mixtures were taken out and 20 μL of them were injected into the HPLC by the autosampler; the rest of them were poured back to the reaction mixture. (Note: In the cases of prodrugs 1d or 1b reacting with alkyne 2d at 37° C., the final concentrations of 2d in the kinetic studies were 250 μM, 300 μM and 350 μM).
Determination of second-order rate constants. The reaction rate constant, kobs, was calculated for each concentration of the alkyne by fitting the prodrug areas versus time using eq. 1: Y=A exp(−kobst) eq. 1 where Y is the prodrug area, and t is time. The pseudo-first-order rate constant, kobs, was then plotted against the concentration of alkyne to yield the second-order rate constant using eq 2: kobs=k2[Alkyne] eq. 2 where k2 is the second-order rate constant.

In a further assay the test system is HeLa cells. As to the kind of experiment: Cytotoxicity studies in HeLa cells (MTT assay / crystal violet assay). Format: cell-based. To be noted: for pIC50: 48 h, read-out: IC50 in Hela cell line; for effect on cell viability: 20 μM alkyne alone, HeLa cells. The procedure: Cell cultures. HeLa cells (ATCC) were used in the following cell culture studies. HeLa cells were maintained in DMEM (Dulbecco's Modified Eagle's Medium) supplemented with 10% fetal bovine serum (MidSci; S01520HI), and 1% penicillin-streptomycin (Sigma-Aldrich; P4333) at 37° C. with 5% CO2.
Cytotoxicity studies. Test compound was dissolved in DMSO to afford a stock solution. The final concentration of DMSO in the cell culture was 1% (v/v) in PBS. HeLa cells were seeded in 96-well plates one day before the experiment. Different concentrations of prodrug was added into the cell culture. The cells were then incubated for 48 h at 37° C. with 5% CO2. The cell viability was tested by the MTT assay described in Levitz, S. M., et al. J Infect Dis 1985, 152, 938-945. Specifically, after 48 h of incubation, 5 mg/mL MTT (3-(4,5-dimethylthiazol-2-yl)-2,5-diphenyltetrazolium bromide) was added into the cell culture. After incubation for 4 h, the supernatant was removed and 100 μL DMSO was added into the wells containing the cells. After shaking gently for 3 min, absorbance at 605 nm was read by a plate reader.
Cytotoxicity studies using crystal violet assay. The test compound was dissolved in DMSO to afford a stock solution. The final concentration of DMSO in cell culture was 1% (v/v) in PBS. HeLa cells were seeded in 96-well plates one day before the experiment. Different concentrations of the test compound were added into the cell culture. The cells were then incubated for 48 h at 37° C. with 5% CO2. Cell viability was tested by the crystal violet assay. Specifically, after 48 h of incubation, the cells were fixed in 100% methanol for 10 min and stained for 20 min with a 1% crystal violet solution in 50% methanol, followed by 5 repeated washings with PBS. 50 μL of DMSO was added to each well. After 20 min of incubation, the plates were analyzed in a microplate reader at 595 nm.
Similar results were observed when the alkyne concentration was decreased to 10 μM. For example, the IC50 of TPP-Dox prodrug 1c was about 2 μM in the presence of 2b, while the IC50 for Dox prodrug 1b was well over 10 μM in the presence of 10 μM of the alkyne trigger 2a (FIG. 3a). As controls, both the IC50 values of 1c and 2b alone were higher than 40 μM, and the treatment of 20 μM of alkyne 2a or 2b alone had no effect on cell viability. […] Without such an enrichment, the reaction is expected to be slow, resulting in a lower level of active Dox being released. […] Thus, mitochondrial enrichment leads to triggered release of the drug. The same concept is applicable to the delivery of drugs through other targeting approaches such as receptor-mediated drug delivery.

Setting [2] is: Homo sapiens, HeLa, compound alone.

Consider `C#CCOc1ccc(-c2nnc(C(=O)O)nn2)cc1` [1a, 6-(4-(prop-2-yn-1-yloxy)phenyl)-1,2,4,5-tetrazine-3-carboxylic acid], for which the “k2 at 37° C. (second order rate constant)” value in assay [1] amounted to 0.25 M⁻¹ s⁻¹. Moreover, the negative-log IC50 (pIC50) – broadly, the negative decadic logarithm of the IC50, by convention in mol/L – in the assay on HeLa cells (in the presence of 100 μM alkyne 2d) is less than 4.00.

For `O=C(O)c1ccc(CC2(O)C#CCCCCC2)cc1` (stereo not shown) [2a, 4-((1-hydroxycyclooct-2-yn-1-yl)methyl)benzoic acid], in the assay with HeLa cells, the “effect on cell viability” value is listed as “no effect”.

In the case of `O=C(NCCC[P+](c1ccccc1)(c1ccccc1)c1ccccc1)c1ccc(CC2(O)C#CCCCCC2)cc1.[Br-]` (stereo not shown) [2b, (3-(4-((1-hydroxycyclooct-2-yn-1-yl)methyl)benzamido)propyl)-triphenylphosphonium bromide], the “effect on cell viability” value with HeLa cells is recorded as “no effect”. Moreover, the pIC50 in the assay on HeLa cells (setting [2]) was less than 4.40; in the assay with HeLa cells (compound alone, listed as Alkyne 2b) it was less than 4.30.

`COc1cccc2c1C(=O)c1c(O)c3c(c(O)c1C2=O)C[C@@](O)(C(=O)CO)C[C@@H]3O[C@H]1C[C@H](N)[C@H](O)[C@H](C)O1` [Dox, Doxorubicin, reference compound]: the pIC50 in the assay on HeLa cells (setting [2]) is approximately 6.00.

These data come from patent publication US11607458B2 (Georgia State University Research Foundation, Inc, priority 2017, dated 2023).
